Assay results published in US11332472B2, “Substituted piperidines as inhibitors of ubiquitin specific protease 7” (LES LABORATOIRES SERVIER, priority 2017, dated 2022).

What was measured:
[1] = target: T1, USP7 (Homo sapiens, UniProt Q93009, C315A); assay: Inhibition of USP7 by Fluorescence Intensity (FLINT) readings, Ubiquitin-Rhodamine-110 substrate; type: biochemical; conditions: 0.25 nM His-His-USP7 (aa208-560, [C315A]); compound 60 minutes at 30° C.; 500 nM Ubiquitin-Rhodamine substrate; 11-point curves
T1 construct: 0.25 nM His-His-USP7 (aa208-560, [C315A]) was incubated with compound; His-His (N)
Description: USP7 activity was measured using Rhodamine-110 c-terminal labelled Ubiquitin as a substrate (Viva Biosciences). Incubation with USP7 results in the release of Rhodamine-110 leading to an increase in fluorescence which can be used in the continuous measurement of USP7 activity.
The USP7 reactions were performed in a 50 μL volume, in 384 well black solid low binding plates (Corning #3575). The reaction buffer consisted of 100 mM Bicine pH 8.0, 0.01% TritonX 100, 1 mM TCEP, and 10% DMSO.
0.25 nM His-His-USP7 (aa208-560, [C315A]) was incubated with compound (final concentration 10% DMSO) for 60 minutes at 30° C. The reaction was then initiated by the addition of 500 nM Ubiquitin-Rhodamine-10 substrate and the plate read every 3 minutes for 21 minutes to measure the release of Rhodamine-110. Fluorescence Intensity (FLINT) readings were measured using a Biomek Neo plate reader (Ex. 485 nm. Em. 535 nm).
The inhibition of increasing doses of compound was expressed as a percentage reduction in kinetic rate compared to the kinetic rates established between ‘DMSO only’ and ‘total inhibition’ controls (no USP7). The inhibitory concentrations that gave a 50% reduction in kinetic rate (IC50) were determined, from 11-point dose response curves, in XL-Fit using a 4-Parameter Logistic Model (Sigmoidal Dose-Response Model).

[2] = system: MM 1S multiple myeloma tumour cell line; assay: In vitro cytotoxicity, MTT assay, MM1S cells; type: cell-based; conditions: Homo sapiens, MM1.S, 96 hours exposure
Description: The cytotoxicity studies were evaluated by MTT assay and carried out on MM 1S multiple myeloma or Z138 mantle cell lymphoma tumour cell lines. The cells are distributed onto microplates and exposed to the test compounds for 96 hours. The cell viability is then quantified by a colorimetric assay, the Microculture Tetrazolium Assay (Carmichael et. al., Cancer Res. […], 47, 936-942).

T1 sequence (Q93009 208-560 C315A): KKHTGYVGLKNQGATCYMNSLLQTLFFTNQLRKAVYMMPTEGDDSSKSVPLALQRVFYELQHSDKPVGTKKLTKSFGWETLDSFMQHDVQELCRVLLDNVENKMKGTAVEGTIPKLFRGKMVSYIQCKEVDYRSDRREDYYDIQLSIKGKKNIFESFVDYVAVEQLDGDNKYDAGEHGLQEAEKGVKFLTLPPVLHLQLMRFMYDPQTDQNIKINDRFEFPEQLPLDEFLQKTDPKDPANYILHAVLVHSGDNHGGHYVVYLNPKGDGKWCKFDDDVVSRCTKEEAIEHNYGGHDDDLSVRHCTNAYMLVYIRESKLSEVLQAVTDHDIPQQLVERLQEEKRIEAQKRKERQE

| IC50 [1] [nM] | Compound | IC50 [2] [nM] |
| --- | --- | --- |
| 75.3 | O=C([C@@H]1CCC(F)(F)C[C@H]1c1ccccc1)N1CCC(O)(Cn2cnc3c(ccn3-c3ccccc3)c2=O)CC1 (single isomer, unassigned) [Example 36, 3-[[1-[trans-4,4-difluoro-2-phenyl-cyclohexanecarbonyl]-4-hydroxy-4-piperidyl]methyl]-7-phenyl-pyrrolo[2,3-d]pyrimidin-4-one] | 126 |
| 113 | O=C(C1CCCC(O)C1c1ccccc1)N1CCC(O)(Cn2cnc3c(ccn3-c3ccccc3)c2=O)CC1 (single isomer, unassigned) [Example 55, (1S,2S,3R or 1R,2R,3S)-3-[[4-hydroxy-1-[3-hydroxy-2-phenyl-cyclohexanecarbonyl]-4-piperidyl]methyl]-7-phenyl-pyrrolo[2,3-d]pyrimidin-4-one] |  |
| 21.7 | O=C(Cc1cccc(O)c1)Nc1ccc2ncn(CC3(O)CCN(C(=O)[C@@H]4CCCC[C@H]4c4ccccc4)CC3)c(=O)c2n1 (relative stereo) [Example 104, 2-(3-hydroxyphenyl)-N-[3-[[4-hydroxy-1-(trans-2-phenylcyclohexanecarbonyl)-4-piperidyl]methyl]-4-oxo-pyrido[3,2-d]pyrimidin-6-yl]acetamide] |  |
| 4670 | COc1ccc(-n2ccc3c(=O)n(CC4(O)CCN(C(=O)[C@@H]5CCC(F)(F)C[C@H]5c5ccccc5)CC4)cnc32)cc1 (single isomer, unassigned) [Example 33, 3-[[1-(trans-4,4-difluoro-2-phenyl-cyclohexanecarbonyl)-4-hydroxy-4-piperidyl]methyl]-7-(4-methoxyphenyl)pyrrolo[2,3-d]pyrimidin-4-one] |  |
| 99.6 | O=C(Nc1ccc2ncn(CC3(O)CCN(C(=O)[C@@H]4CCCC[C@H]4c4ccccc4)CC3)c(=O)c2n1)C1CCOC1 (relative stereo) [Example 101, N-[3-[[4-hydroxy-1-(trans-2-phenylcyclohexanecarbonyl)-4-piperidyl]methyl]-4-oxo-pyrido[3,2-d]pyrimidin-6-yl]tetrahydrofuran-3-carboxamide] |  |
| 612 | COc1ccc(-n2ccc3c(=O)n(CC4(O)CCN(C(=O)[C@@H]5CC(F)(F)CC[C@H]5c5ccccc5)CC4)cnc32)cc1 (single isomer, unassigned) [Example 29, 3-[[1-[trans-5,5-difluoro-2-phenyl-cyclohexanecarbonyl]-4-hydroxy-4-piperidyl]methyl]-7-(4-methoxyphenyl)pyrrolo[2,3-d]pyrimidin-4-one] |  |
| 2750 | COc1ccc(-n2ccc3c(=O)n(CC4(O)CCN(C(=O)[C@@H]5CCCO[C@H]5c5ccccc5)CC4)cnc32)cc1 (single isomer, unassigned) [Example 44, 3-[[4-hydroxy-1-[trans-2-phenyltetrahydropyran-3-carbonyl]-4-piperidyl]methyl]-7-(4-methoxyphenyl)pyrrolo[2,3-d]pyrimidin-4-one] |  |
| 530 | Cn1ccc2c(=O)n(CC3(O)CCN(C(=O)[C@@H]4CCCC[C@H]4c4ccoc4)CC3)cnc21 (relative stereo) [Example 3, 3-[[1-[trans-2-(3-furyl)cyclohexanecarbonyl]-4-hydroxy-4-piperidyl]methyl]-7-methyl-pyrrolo[2,3-d]pyrimidin-4-one] |  |
| 471 | Cn1ccc2c(=O)n(CC3(O)CCN(C(=O)[C@@H]4CCC(F)(F)C[C@H]4c4ccccc4)CC3)cnc21 (single isomer, unassigned) [Example 112, 3-[[1-[trans-4,4-difluoro-2-phenyl-cyclohexanecarbonyl]-4-hydroxy-4-piperidyl]methyl]-7-methyl-pyrrolo[2,3-d]pyrimidin-4-one] |  |
| 10500 | COc1ccc(-n2ccc3c(=O)n(CC4(O)CCN(C(=O)C5CCCCC5c5nccn5C)CC4)cnc32)cc1 (single isomer, unassigned) [Example 69, 3-[[4-hydroxy-1-trans-2-(1-methylimidazol-2-yl)cyclohexanecarbonyl]-4-piperidyl]methyl-7-(4-methoxyphenyl)pyrrolo[2,3-d]pyrimidin-4-one] |  |
| 13300 | COc1ccc(-n2ccc3c(=O)n(CC4(O)CCN(C(=O)[C@@H]5OCCO[C@@H]5c5ccccc5)CC4)cnc32)cc1 (single isomer, unassigned) [Example 8, 3-[[4-hydroxy-1-[cis-3-phenyl-1,4-dioxane-2-carbonyl]-4-piperidyl]methyl]-7-(4-methoxyphenyl)pyrrolo[2,3-d]pyrimidin-4-one] |  |
| 591 | O=C([C@@H]1CCC(F)(F)C[C@H]1c1cocn1)N1CCC(O)(Cn2cnc3c(-c4ccc(CO)cc4)scc3c2=O)CC1 (relative stereo) [Example 77, 3-[[1-[trans-4,4-difluoro-2-oxazol-4-yl-cyclohexanecarbonyl]-4-hydroxy-4-piperidyl]methyl]-7-[4-(hydroxymethyl)phenyl]thieno[3,4-d]pyrimidin-4-one] |  |
| 6640 | O=C([C@@H]1CCC(F)(F)C[C@H]1c1cnco1)N1CCC(O)(Cn2cnc3c(Cl)scc3c2=O)CC1 (relative stereo) [Example 76, 7-chloro-3-[[1-[trans-4,4-difluoro-2-oxazol-5-yl-cyclohexanecarbonyl]-4-hydroxy-4-piperidyl]methyl]thieno[3,4-d]pyrimidin-4-one] |  |
| 10100 | O=C([C@@H]1CCC(F)(F)C[C@H]1c1cscn1)N1CCC(O)(Cn2cnc3c(-c4ccccc4)scc3c2=O)CC1 (single isomer, unassigned) [Example 82, 3-[[1-[trans-4,4-difluoro-2-thiazol-4-yl-cyclohexanecarbonyl]-4-hydroxy-4-piperidyl]methyl]-7-phenyl-thieno[3,4-d]pyrimidin-4-one] |  |
| 310 | O=C([C@@H]1CCC(F)(F)C[C@H]1c1ccsc1)N1CCC(O)(Cn2cnc3c(-c4ccccc4)scc3c2=O)CC1 (single isomer, unassigned) [Example 88, 3-[[1-[trans-4,4-difluoro-2-(3-thienyl)cyclohexanecarbonyl]-4-hydroxy-4-piperidyl]methyl]-7-phenyl-thieno[3,4-d]pyrimidin-4-one] |  |
| 137 | O=C([C@@H]1CCCC[C@H]1c1ccccc1)N1CCC(O)(Cn2cnc3sccc3c2=O)CC1 (relative stereo) [Example 91, 3-[[4-hydroxy-1-(trans-2-phenylcyclohexanecarbonyl)-4-piperidyl]methyl]thieno[2,3-d]pyrimidin-4-one] |  |
| 60.1 | O=C([C@@H]1CC(F)(F)CC[C@H]1c1ccccc1)N1CCC(O)(Cn2cnc3c(-c4ccccc4)scc3c2=O)CC1 (single isomer, unassigned) [Example 79, 3-[[1-[trans-5,5-difluoro-2-phenyl-cyclohexanecarbonyl]-4-hydroxy-4-piperidyl]methyl]-7-phenyl-thieno[3,4-d]pyrimidin-4-one] |  |
| 13500 | O=C([C@@H]1CCC(F)(F)C[C@H]1c1ccccc1)N1CCC(O)(Cn2cnc3c(ccn3-c3ccccc3)c2=O)CC1 (single isomer, unassigned) [Example 35, 3-[[1-[trans-4,4-difluoro-2-phenyl-cyclohexanecarbonyl]-4-hydroxy-4-piperidyl]methyl]-7-phenyl-pyrrolo[2,3-d]pyrimidin-4-one] |  |
| 15.3 | O=C(Cc1c[nH]c2ccc(O)cc12)Nc1ccc2ncn(CC3(O)CCN(C(=O)C4CCCCC4c4ccccc4)CC3)c(=O)c2n1 (stereo not drawn) [Example 105, 2-(5-hydroxy-1H-idol-3-yl)-N-[3-[[4-hydroxy-1-(trans-2-phenylcyclohexanecarbonyl)-4-piperidyl]methyl]-4-oxo-pyrido[3,2-d]pyrimidin-6-yl]acetamide] |  |
| 20300 | Cn1ccnc1[C@@H]1CCCC[C@H]1C(=O)N1CCC(O)(Cn2cnc3c(ccn3-c3ccccc3)c2=O)CC1 (single isomer, unassigned) [Example 58, 3-[[4-hydroxy-1-[trans-2-(1-methylimidazol-2-yl)cyclohexanecarbonyl]-4-piperidyl]methyl]-7-phenyl-pyrrolo[2,3-d]pyrimidin-4-one] |  |
| 4580 | O=C([C@@H]1CCCC[C@H]1c1ccoc1)N1CCC(O)(Cn2cnc3cccnc3c2=O)CC1 (relative stereo) [Example 4, 3-[[1-[trans-2-(3-furyl)cyclohexanecarbonyl]-4-hydroxy-4-piperidyl]methyl]pyrido[3,2-d]pyrimidin-4-one] |  |
| 916 | O=C([C@@H]1CCCC[C@H]1c1ccsc1)N1CCC(O)(Cn2cnc3cccnc3c2=O)CC1 (relative stereo) [Example 1, 3-[[4-hydroxy-1-[trans-2-(3-thienyl)cyclohexanecarbonyl]-4-piperidyl]methyl]pyrido[3,2-d]pyrimidin-4-one] |  |
| 611 | O=C([C@@H]1CCC(F)(F)C[C@H]1c1ccncc1)N1CCC(O)(Cn2cnc3c(-c4ccccc4)scc3c2=O)CC1 (relative stereo) [Example 84, 3-[[1-[trans-4,4-difluoro-2-(4-pyridyl)cyclohexanecarbonyl]-4-hydroxy-4-piperidyl]methyl]-7-phenyl-thieno[3,4-d]pyrimidin-4-one] |  |
